Results published in PMC10584170, “Machine learning-based phenotypic imaging to characterise the targetable biology of Plasmodium falciparum male gametocytes for the development of transmission-blocking antimalarials” (PLOS Pathogens, 2023).
Read-outs that look alike come from different tables or passages of the source.

Experiments:
[1] = system: P. falciparum female gametocytes; assay: P. falciparum Dual Gamete Formation Assay (PfDGFA), female readout (Pfs25-positive female gametes); assay type: cell-based, Plasmodium falciparum NF54; conditions: for inhibition at 2 µM: 24h preincubation with gametocytes
Summary of the method: (§1)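 Mature NF54 gametocytes (day 14) were incubated with compound for 24 h at 37°C under 1% O2/3% CO2, then triggered with xanthurenic acid ookinete medium plus Cy3-anti-Pfs25. Exflagellation was imaged by brightfield; after a further 24 h at 28°C, Pfs25-positive female gametes were imaged by fluorescence and counted by automated image analysis.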

[2] = system: P. falciparum male gametocytes; assay: P. falciparum Dual Gamete Formation Assay (PfDGFA), male readout (exflagellation); assay type: cell-based, Plasmodium falciparum NF54; conditions: for inhibition at 2 µM: 24h preincubation with gametocytes; for Activity: hit = >50% inhibition in male or female readout in at least 3 replicates, 0 = no class assigned
Summary of the method: as §1

[3] = PfDGFA at 2µM, 24h preincubation with gametocytes prior to induction of gametogenesis, replicate R1
[4] = PfDGFA at 2µM, 24h preincubation with gametocytes prior to induction of gametogenesis, replicate R3
[5] = PfDGFA at 2µM, 24h preincubation with gametocytes prior to induction of gametogenesis, replicate R4
[6] = PfDGFA at 2µM, 24h preincubation, average of replicates
[7] = 2µM, 24h preincubation with gametocytes prior to induction of gametogenesis, average of replicates
[8] = 2µM, 24h preincubation with gametocytes prior to induction of gametogenesis, replicate R1
[9] = 2µM, 24h preincubation with gametocytes prior to induction of gametogenesis, replicate R3
[10] = 2µM, 24h preincubation with gametocytes prior to induction of gametogenesis, replicate R4
[11] = 2µM, 24h preincubation, hits selected on >50% inhibition in the female readout across replicates
[12] = 2µM, 24h preincubation, hits selected on >50% inhibition in the male readout across replicates
[13] = PfDGFA at 2µM, 24h preincubation
[14] = 2µM, 24h preincubation, number of replicates with >50% inhibition in the female readout
[15] = 2µM, 24h preincubation, number of replicates with >50% inhibition in the male readout

C#C[C@H]1O[C@@H](n2cnc3c(Nc4cc(Br)cc(C(F)(F)F)c4)ncnc32)[C@H](O)[C@@H]1O [TCMDC-135185]
Selectivity ratio F ([1]; HepG2 Tox50 versus female IC50): 10 | inhibition at 2 µM ([1]; Plasmodium falciparum, 2µM, average of replicates, read-out: Average inhibition female (%)): 3.7% | inhibition at 2 µM ([1]; Plasmodium falciparum, 2µM, replicate R1, read-out: % inhibition female (individual replicates) R1): 8.3% | inhibition at 2 µM ([1]; Plasmodium falciparum, 2µM, replicate R2, read-out: % inhibition female (individual replicates) R2): -2.8% | inhibition at 2 µM ([1]; Plasmodium falciparum, 2µM, replicate R3, read-out: % inhibition female (individual replicates) R3): -10.2% | inhibition at 2 µM ([1]; Plasmodium falciparum, 2µM, replicate R4, read-out: % inhibition female (individual replicates) R4): 19.5% | IC50 ([1]; Plasmodium falciparum, PfDGFA, 24 h incubation with gametocytes before induction, female gamete readout, read-out: Female IC50): > 10000 nM | Selectivity Ratio M ([2]; HepG2 Tox50 versus male IC50): 328.28 | inhibition at 2 µM ([2]; Plasmodium falciparum, 2µM, average of replicates, read-out: Average inhibition male (%)): 97% | inhibition at 2 µM ([2]; Plasmodium falciparum, 2µM, replicate R1, read-out: % inhibition male (individual replicates) R1): 97.5% | inhibition at 2 µM ([2]; Plasmodium falciparum, 2µM, replicate R2, read-out: % inhibition male (individual replicates) R2): 96.8% | inhibition at 2 µM ([2]; Plasmodium falciparum, 2µM, replicate R3, read-out: % inhibition male (individual replicates) R3): 98% | inhibition at 2 µM ([2]; Plasmodium falciparum, 2µM, replicate R4, read-out: % inhibition male (individual replicates) R4): 95.6% | IC50 ([2]; Plasmodium falciparum, PfDGFA, 24 h incubation with gametocytes before induction, exflagellation readout, read-out: Male IC50): 300 nM

O=C(C1CCCC1)N1CCOC(CCN2CCC(c3ccccc3)CC2)(c2ccc(Cl)c(Cl)c2)C1 (stereo not drawn) [TCMDC-135327]
% inhibition female (individual replicates) R1 [1, 3]: 8.8% | % inhibition female (individual replicates) R3 [1, 4]: -20.5% | % inhibition female (individual replicates) R4 [1, 5]: 17.1% | Average inhibition female (%) [1, 6]: -1.8% | % inhibition male (individual replicates) R1 [2, 3]: 1.8% | % inhibition male (individual replicates) R3 [2, 4]: 11.7% | % inhibition male (individual replicates) R4 [2, 5]: 15.6% | Average inhibition male (%) [2, 6]: 8.1%

O=C(Nc1ccc(C(=O)OCC2CCCCC2)cc1)N[C@@H](Cc1ccc(O)cc1)C(=O)NC1CCN(Cc2ccc(O)cc2)C1.O=C(O)C(F)(F)F (stereo partly drawn) [TCMDC-135357]
Average inhibition female (%) [1, 7]: 4.9% | % inhibition female (individual replicates) R1 [1, 8]: 8.9% | % inhibition female (individual replicates) R3 [1, 9]: 10.5% | % inhibition female (individual replicates) R4 [1, 10]: 8.3% | HitlevelF [1, 11]: 0 | Average inhibition male (%) [2, 7]: -19.1% | % inhibition male (individual replicates) R1 [2, 8]: -13.6% | % inhibition male (individual replicates) R3 [2, 9]: -12.1% | % inhibition male (individual replicates) R4 [2, 10]: -40.5% | HitlevelM [2, 12]: 0 | Activity [2, 13]: 0

C=C[C@]1(C)C[C@@H](OC(=O)CNC[C@@H](O)CN2C[C@H](c3ccnc4ccc(OC)nc34)OC2=O)[C@]2(C)[C@H](C)CC[C@]3(CCC(=O)[C@H]32)[C@@H](C)[C@@H]1O [TCMDC-135366]
% inhibition female (individual replicates) R1 [1, 3]: -19.6% | % inhibition female (individual replicates) R3 [1, 4]: -21.7% | % inhibition female (individual replicates) R4 [1, 5]: -0.7% | Average inhibition female (%) [1, 6]: -7.1% | % inhibition male (individual replicates) R1 [2, 3]: -4.9% | % inhibition male (individual replicates) R3 [2, 4]: -9.1% | % inhibition male (individual replicates) R4 [2, 5]: 9.5% | Average inhibition male (%) [2, 6]: -1.6%

COc1cc(NC(=O)c2sc(-c3ccc(Cl)cc3)cc2NC(=O)c2cccnc2)ccc1OCCN1CCCC1 [TCMDC-135397]
Average inhibition female (%) [1, 7]: 46.9% | % inhibition female (individual replicates) R1 [1, 8]: 19.3% | % inhibition female (individual replicates) R3 [1, 9]: 58.0% | % inhibition female (individual replicates) R4 [1, 10]: 48.0% | HitlevelF [1, 14]: 2 | Average inhibition male (%) [2, 7]: 57.2% | % inhibition male (individual replicates) R1 [2, 8]: 45.5% | % inhibition male (individual replicates) R3 [2, 9]: 40.3% | % inhibition male (individual replicates) R4 [2, 10]: 71.6% | HitlevelM [2, 15]: 2

CCCCN(Cc1cc(Cl)c(OC)c(OC)c1)c1ccc(C(O)(C(F)(F)F)C(F)(F)F)cc1.O=C(O)C(F)(F)F [TCMDC-135446]
% inhibition female (individual replicates) R1 [1, 3]: 1.9% | % inhibition female (individual replicates) R3 [1, 4]: -6.9% | % inhibition female (individual replicates) R4 [1, 5]: 1.5% | Average inhibition female (%) [1, 6]: -3.4% | % inhibition male (individual replicates) R1 [2, 3]: -14.8% | % inhibition male (individual replicates) R4 [2, 5]: -29.5% | Average inhibition male (%) [2, 6]: -22.3%

NCCCNc1nccc(N2CCc3ncnc(Nc4ccc(OCc5cccc(F)c5)c(Cl)c4)c3C2)n1 [TCMDC-135456]
Average inhibition female (%) [1, 7]: 13.8% | % inhibition female (individual replicates) R1 [1, 8]: 10.7% | % inhibition female (individual replicates) R3 [1, 9]: -9.6% | % inhibition female (individual replicates) R4 [1, 10]: 40.7% | HitlevelF [1, 11]: 0 | Average inhibition male (%) [2, 7]: -16.9% | % inhibition male (individual replicates) R1 [2, 8]: -14.5% | % inhibition male (individual replicates) R3 [2, 9]: -30.0% | % inhibition male (individual replicates) R4 [2, 10]: -11.8% | HitlevelM [2, 12]: 0 | Activity [2, 13]: 0

COc1cc2ccccc2cc1OCCCN1CCN(CC(c2ccc(F)cc2)N2CCN(C(C)C)CC2)CC1.Cl (stereo not drawn) [TCMDC-135496]
Average inhibition female (%) [1, 7]: 22.9% | % inhibition female (individual replicates) R1 [1, 8]: 29.5% | % inhibition female (individual replicates) R3 [1, 9]: 8.0% | % inhibition female (individual replicates) R4 [1, 10]: 29.0% | HitlevelF [1, 14]: 0 | Average inhibition male (%) [2, 7]: 6.1% | % inhibition male (individual replicates) R1 [2, 8]: 10.5% | % inhibition male (individual replicates) R3 [2, 9]: -16.9% | % inhibition male (individual replicates) R4 [2, 10]: 18.2% | HitlevelM [2, 15]: 0

CC(C)N1CCN(C(CN2CCN(CCCOc3ccccc3-c3ccccc3)CC2)c2ccc(F)cc2)CC1.Cl (stereo not drawn) [TCMDC-135499]
Average inhibition female (%) [1, 7]: 28.0% | % inhibition female (individual replicates) R1 [1, 8]: 23.1% | % inhibition female (individual replicates) R3 [1, 9]: 16.4% | % inhibition female (individual replicates) R4 [1, 10]: 32.9% | HitlevelF [1, 14]: 0 | Average inhibition male (%) [2, 7]: 13.5% | % inhibition male (individual replicates) R1 [2, 8]: 15.7% | % inhibition male (individual replicates) R3 [2, 9]: 14.1% | % inhibition male (individual replicates) R4 [2, 10]: 9.5% | HitlevelM [2, 15]: 0

CC(=O)Nc1cccc(Nc2nccc(-c3c(-c4cccc(NC(=O)c5c(F)cccc5F)c4)nn4ncccc34)n2)c1 [TCMDC-135548]
% inhibition female (individual replicates) R1 [1, 3]: -7.4% | % inhibition female (individual replicates) R3 [1, 4]: -25.4% | % inhibition female (individual replicates) R4 [1, 5]: -8.4% | Average inhibition female (%) [1, 6]: -11.7% | % inhibition male (individual replicates) R1 [2, 3]: 29.2% | % inhibition male (individual replicates) R3 [2, 4]: 23.6% | % inhibition male (individual replicates) R4 [2, 5]: -3.8% | Average inhibition male (%) [2, 6]: 8.8%

CCS(=O)(=O)c1ccc(OC)c(Nc2nccc(-c3c(-c4cccc(NC(=O)c5c(F)cccc5F)c4)nn4ncccc34)n2)c1 [TCMDC-135682]
Average inhibition female (%) [1, 7]: 14.6% | % inhibition female (individual replicates) R1 [1, 8]: 17.1% | % inhibition female (individual replicates) R3 [1, 9]: 13.9% | % inhibition female (individual replicates) R4 [1, 10]: 13.6% | HitlevelF [1, 11]: 0 | Average inhibition male (%) [2, 7]: 69.4% | % inhibition male (individual replicates) R1 [2, 8]: 83.8% | % inhibition male (individual replicates) R4 [2, 10]: 34.3% | HitlevelM [2, 12]: 2 | Activity [2, 13]: 0

C[C@@H](Oc1cc(-n2cnc3ccc(OCC4CCN(S(C)(=O)=O)CC4)cc32)sc1C(N)=O)c1ccccc1C(F)(F)F [TCMDC-135685]
Average inhibition female (%) [1, 7]: 30.5% | % inhibition female (individual replicates) R1 [1, 8]: 13.3% | % inhibition female (individual replicates) R3 [1, 9]: 19.8% | % inhibition female (individual replicates) R4 [1, 10]: 50.4% | HitlevelF [1, 14]: 1 | Average inhibition male (%) [2, 7]: 39.3% | % inhibition male (individual replicates) R1 [2, 8]: 77.8% | % inhibition male (individual replicates) R3 [2, 9]: 32.6% | % inhibition male (individual replicates) R4 [2, 10]: -12.5% | HitlevelM [2, 15]: 2
